Key:
[1] = test system: heterotopic (H) mouse model of PC (HPC); conditions: earlier report (ref 55); cited from earlier work
[2] = test system: MiaPaCa-2 cells; assay: MTT cell viability assay, MiaPaCa-2; type: cell-based, human; conditions: API 40 μM, 24 h, vs DMSO vehicle
Experimental: The methyl thiazol tetrazolium (MTT) assay was performed as described previously^58. Briefly, MiaPaCa-2, Panc02 and UN-KC-6141 cells were seeded in 96-well plates at a density of 3000 cells/well and allowed to attach overnight. PC cells were then treated with API (40 μM) or DMSO (1%) as vehicle control for 24 h at 37° C. in 5% CO2 incubator. After 24 h, media was replaced with 20 μL of MTT (1 mg/mL) (Sigma-Aldrich) and incubated for 3 h at 37° C. in 5% CO2. MTT was replaced with DMSO, and absorbance was read at 570 nm.
MiaPaCa-2, Panc02 and UN-KC-6141 cells (2×10^5) were grown in 2 mL of growth medium in a 6-well tissue culture plate for 18-24 h until 60-80% confluency. The following solutions were prepared: Solution A) For each transfection, diluted 1 μL of miRNA-155 inhibitors (1 μM) (Table 2) or scrambled negative control miRNA (1 μM) (Qiagen, Germantown, MD, USA) into 50 μL Opti-MEM Transfection Medium (Invitrogen, Waltham, MA, USA). Solution B) For each transfection, diluted 3 μL of Hi-Perfect Transfection Reagent into 50 μL Opti-MEM Transfection Medium. Solution A was added directly to Solution B, mixed gently and the mixture incubated for 10-15 min at room temperature. […]

[3] = test system: miR-155; assay: miR-155 gene expression by RT-qPCR in MiaPaCa-2 cells; type: cell-based, human; conditions: API 40 μM, 24 h, vs DMSO vehicle
Experimental: MiR-155 is known to be overexpressed in different cancers, including PC^21, 23. The inventors first assessed whether apigenin could modulate the expression of miR-155 in PC cells. Murine PC cell lines Panc02 and UN-KC-6141 as well as the human PC cell line MiaPaCa-2 were treated with API (40 μM) or DMSO vehicle for 24 h and the expression of miR-155 was examined using RT-qPCR assay. […] Since API is known to inhibit the growth of cancer cells, including PC cells^39-43, 47-50, the same PC cell lines were treated with API (40 μM) or DMSO (vehicle) for 24 h and examined cell viability using MTT assay. […] Moreover, Panc02 and UN-KC-6141 cells were then treated with API at a dose dependent concentration (10, 20, 30, 40, 50 μM) and detected apoptosis using flow cytometry (Annexin V and PI).
miR-155 is implicated in the development of pancreatic tumors from pancreatic intraepithelial neoplasia (PanIN) lesions, and is overexpressed in PC^23. The inventors examined whether the depletion of miR-155 modulated PC viability. Murine and human PC cell lines were transfected with miR-155 inhibitor (i.e., MMU-MIR-155-5P/HSA-MIR-155-5P) and scrambled miRNA at a concentration of 100 nM for 24 h and cell viability determined using an MTT assay. The expression of miR-155 was examined using an RT-qPCR assay as well. […]

[4] = test system: iNOS; assay: Western blot of iNOS protein in tumors of KC-HPC mice; type: in vivo, mouse; conditions: KC-HPC-API vs KC-HPC mice
Experimental: The inventors then assessed the expression of CD40 (a T cell co-stimulation marker) on M1 TAM (gated as MHC-II^+ and CD206) within the tumor from KC-HPC vs. KC-HPC-API mice. […] Single-cell suspensions of BM, digested pancreatic tumors cells and UN-KC-6141 cells treated with API (40 μM) were lysed with radioimmunoprecipitation buffer (Sigma-Aldrich), quantified with a BCA Protein Assay kit (Thermo Fisher Scientific, Waltham, MA, USA), resolved by SDS-PAGE (Thermo Fisher Scientific) and transferred onto a nitrocellulose membrane as previously described. Membranes were probed with either anti-SHIP-1 (Santa Cruz Biotechnology, Dallas, TX, USA), anti-iNOS (Cell Signaling Technology) or anti-Bcl-2 (Cell Signaling Technology, Danvers, MA, USA), all at a dilution of 1:1000. All blots were re-probed with a housekeeping protein, HRP-conjugated anti-β-actin (Sigma-Aldrich), at a dilution of 1:20,000. Membranes were then probed with the respective secondary anti-mouse or rabbit IgG HRP-conjugated antibodies (1:1000) of SHIP-1 and iNOS. Detection of SHIP-1, iNOS and β-actin proteins was performed using Super Signal West Pico or Femto Chemiluminescent Substrates (Thermo Fisher Scientific) and then imaged on a Bio-Rad Chemi Doc XRS Imaging System. Normalized densitometric ratios (divided by β-actin) were determined by quantifying WB results using Image J.

Compound: O=c1cc(-c2ccc(O)cc2)oc2cc(O)cc(O)c12 [API, 40,5,7-Trihydroxyflavone, 5,7-Dihydroxy-2-(4-hydroxyphenyl)-4-benzopyrone]
- survival [1]: increased
- tumor growth [1]: reduced
- cell viability (MTT) [2]: significantly inhibited
- miR-155 gene expression [3]: significantly suppressed
- iNOS protein expression in tumor [4]: significant increase

Reference: US20240415804A1, “METHOD OF TREATING PANCREATIC CANCER” (University of South Florida, priority 2022, published 2024)
